Patent publication US12234202B2, “Covalent inhibitors of coronavirus papain-like protease” (UT-Battelle, LLC, priority 2021, dated 2025)
Read-outs that look alike come from different tables or passages of the source.

What was measured:
in vitro [1] = conditions: human, microsomes
[2] = system: SARS-CoV-2 isolate USA-WA1/2020; experiment: microbe, parasite or virus in culture; assay type: cell-based
SARS-CoV-2 PLpro [3] = target: T1, SARS-CoV-2 PLpro (Severe acute respiratory syndrome coronavirus 2, UniProt P0DTD1); experiment: biochemical; assay type: biochemical; conditions: after 30-minute incubation; Z-RLRGG-AMC
[4] = system: viral replication in Vero E6 cells; conditions: K. Ratia et al.; cited from earlier work
Vero E6 cells [5] = system: Vero E6 cells
in vitro [6] = conditions: human, s9
SARS-CoV-2 PLpro [7] = target: T1, SARS-CoV-2 PLpro; experiment: biochemical; conditions: ISG15-CHOP2 substrate
[8] = target: seven human DUBs, UCHL1, USP2, USP4, USP7, USP8, USP15, and USP30; experiment: Human deubiquitinase selectivity screening; assay type: biochemical; conditions: for IC50: UCHL1, USP2, USP4, USP7, USP8, USP15, USP30, read-out: IC50 (μM) values versus seven human deubiquitinases; for inhibition of human DUBs: concentrations up to 30 μM
in vitro [9] = conditions: African green monkey
SARS-CoV-2 PLpro [10] = target: T1, SARS-CoV-2 PLpro; experiment: biochemical; conditions: for kinact/KI / kinact/KI (M^−1 s^−1): second-order rate constant
SARS-CoV-2 PLpro [11] = target: T1, SARS-CoV-2 PLpro; experiment: biochemical; conditions: Ub-rhodamine substrate
[12] = target: ubiquitin C-terminal hydrolase UCH-L1 (Homo sapiens (Human), UniProt P09936); conditions: K. Ratia et al.; cited from earlier work
HAUSP = HAUSP (Homo sapiens (Human), UniProt Q93009); conditions: K. Ratia et al.; cited from earlier work
deISGylase USP18 = deISGylase USP18 (Homo sapiens (Human), UniProt Q9UMW8); conditions: K. Ratia et al.; cited from earlier work
[13] = target: ubiquitin C-terminal hydrolase UCH-L3 (Homo sapiens (Human), UniProt P15374); conditions: K. Ratia et al.; cited from earlier work
cell viability = conditions: concentrations up to 50 μM in cell viability assays; cited from earlier work
SARS-CoV PLpro = SARS-CoV PLpro (Severe acute respiratory syndrome coronavirus (SARS-CoV), UniProt P0C6X7); conditions: cited from earlier work
[14] = system: SARS-CoV-2 Delta (B.1.617.2); experiment: CPE assay in Vero E6 cells, neutral red staining, Delta; assay type: cell-based; conditions: Severe acute respiratory syndrome coronavirus 2, Vero C1008
[15] = system: SARS-CoV-2 Delta (B.1.617.2); experiment: microbe, parasite or virus in culture; assay type: cell-based; conditions: Severe acute respiratory syndrome coronavirus 2, Caco-2
[16] = mouse, in vivo
Caco-2 cells = conditions: Delta row
[17] = system: SARS-CoV-2 Omicron (B.1.1.529); experiment: CPE assay in Vero E6 cells, neutral red staining, Omicron; assay type: cell-based; conditions: Severe acute respiratory syndrome coronavirus 2, Vero C1008
in vitro [18] = conditions: human
Vero E6 cells [19] = conditions: 2 μM CP-100356, Delta row
SARS-CoV-2 USA-WA1/2020 [20] = experiment: microbe, parasite or virus in culture; assay type: cell-based; conditions: Severe acute respiratory syndrome coronavirus 2, Caco-2
in vitro [21] = conditions: African green monkey; remark: listed apart in the source
[22] = system: SARS-CoV-2 Omicron (B.1.1.529); experiment: microbe, parasite or virus in culture; assay type: cell-based; conditions: Severe acute respiratory syndrome coronavirus 2, Caco-2
SARS-CoV-2 USA-WA1/2020 [23] = experiment: CPE assay in Vero E6 cells, neutral red staining, USA-WA1/2020; assay type: cell-based; conditions: Severe acute respiratory syndrome coronavirus 2, Vero C1008
[24] = cytopathic effect in SARS-CoV-2-infected Vero E6 cells, 48 h, MOI 0.1
[25] = time-dependent inhibition yes/no

Cc1ccccc1C(=O)N[C@H](C)c1cccc2ccccc12 [Compound 14, (R)-2-methyl-N-(1-(naphthalen-1-yl)ethyl)benzamide]
half-life at 1 μM (in vitro [1]): 41 min | EC50 (μM) [2, 24]: no CPE | IC50 (SARS-CoV-2 PLpro [3]): 100 µM | EC50 [4]: 10 µM | Cytotox. (<30 μM) (Vero E6 cells [5]): no | half-life at 1 μM (in vitro [6]): > 60 min

C[C@@H](NC(=O)c1ccccc1CCC(=O)NNC(=O)CCl)c1cccc2ccccc12 [Compound 9, (R)-2-(3-(2-(2-chloroacetyl)hydrazineyl)-3-oxopropyl)-N-(1-(naphthalen-1-yl)ethyl)benzamide]
half-life at 1 μM (in vitro [1]): 7 min | EC50 ([2]; Severe acute respiratory syndrome coronavirus 2, Vero C1008, cytopathic effect in SARS-CoV-2-infected Vero E6 cells, 48 h, MOI 0.1): 34 µM | IC50 (SARS-CoV-2 PLpro [7]): 20.2 µM | IC50 [8]: > 30 µM | inhibition of human DUBs [8]: no inhibition was observed | CC50 at 48 h (in vitro [9]): > 30 µM | kinact/KI (SARS-CoV-2 PLpro [10]): 100 M⁻¹ s⁻¹ | kinact/KI (M^−1 s^−1) (SARS-CoV-2 PLpro [10]): 103 M⁻¹ s⁻¹ | Time dep. (SARS-CoV-2 PLpro [10]; [25]): yes | IC50 (SARS-CoV-2 PLpro [3]): 5.4 µM | Cytotox. (<30 μM) (Vero E6 cells [5]): no | half-life at 1 μM (in vitro [6]): 3 min | IC50 (SARS-CoV-2 PLpro [11]): 1960 nM

C[C@@H](NC(=O)c1ccccc1CCC(=O)NN)c1cccc2ccccc12 [Compound 5, (R)-2-(3-hydrazineyl-3-oxopropyl)-N-(1-(naphthalen-1-yl)ethyl)benzamide]
Time dep. (SARS-CoV-2 PLpro [10]; [25]): no | IC50 (SARS-CoV-2 PLpro [3]): 24 µM

GRL0617
IC50 [12]: > 100 µM | IC50 (HAUSP): > 100 µM | IC50 (deISGylase USP18): > 100 µM | IC50 [13]: > 100 µM | Time dep. (SARS-CoV-2 PLpro [10]): no | cytotoxicity (cell viability): does not display cytotoxicity

CC(=O)Nc1ccc(CCC(=O)NNC(=O)CCl)c(C(=O)N[C@H](C)c2cccc3ccccc23)c1 [Compound 10, (R)-5-acetamido-2-(3-(2-(2-chloroacetyl)hydrazineyl)-3-oxopropyl)-N-(1-(naphthalen-1-yl)ethyl)benzamide]
cytoprotective effects ([2]; SARS-CoV-2-infected Vero E6 cells): insignificant cytoprotective effects | EC50 (μM) [2, 24]: no CPE | kinact/KI (SARS-CoV-2 PLpro [10]): 120 M⁻¹ s⁻¹ | kinact/KI (M^−1 s^−1) (SARS-CoV-2 PLpro [10]): 120 M⁻¹ s⁻¹ | Time dep. (SARS-CoV-2 PLpro [10]; [25]): yes | IC50 (SARS-CoV-2 PLpro [3]): 4.4 µM | Cytotox. (<30 μM) (Vero E6 cells [5]): no

C#CC(=O)NNC(=O)CCc1ccccc1C(=O)N[C@H](C)c1cccc2ccccc12 [Compound 12, (R)—N-(1-(naphthalen-1-yl)ethyl)-2-(3-oxo-3-(2-propioloylhydrazineyl)propyl)benzamide]
EC50 (μM) [2, 24]: no CPE | CC50 at 48 h (in vitro [9]): 1 to 5 µM | kinact/KI (SARS-CoV-2 PLpro [10]): 4800 M⁻¹ s⁻¹ | Time dep. (SARS-CoV-2 PLpro [10]; [25]): Time-dependent inhibition was observed and yes | IC50 (SARS-CoV-2 PLpro [3]): 0.098 µM | Cytotox. (<30 μM) (Vero E6 cells [5]): yes

CC(=O)Nc1ccc(C)c(C(=O)N[C@H](C)c2cccc3ccccc23)c1 [Compound 15, (R)-5-acetamido-2-methyl-N-(1-(naphthalen-1-yl)ethyl)benzamide]
EC50 (μM) [2, 24]: no CPE | IC50 (SARS-CoV PLpro): 2600 nM | IC50 (SARS-CoV-2 PLpro [3]): 6.2 µM | EC50 [4]: 13.1 µM | Cytotox. (<30 μM) (Vero E6 cells [5]): no

C[C@@H](NC(=O)c1ccccc1CCC(=O)NNC(=O)C(C#N)=CC1CC1)c1cccc2ccccc12 [Compound 13, (R)-2-(3-(2-(2-cyano-3-cyclopropylacryloyl)hydrazineyl)-3-oxopropyl)-N-(1-(naphthalen-1-yl)ethyl)benzamide]
EC50 (μM) [2, 24]: no CPE | CC50 at 48 h (in vitro [9]): 1 to 5 µM | Time dep. (SARS-CoV-2 PLpro [10]; [25]): not and no | IC50 (SARS-CoV-2 PLpro [3]): > 200 µM | Cytotox. (<30 μM) (Vero E6 cells [5]): yes

C[C@@H](NC(=O)c1ccccc1CCC(=O)NNC(=O)CC#N)c1cccc2ccccc12 [Compound 11, (R)-2-(3-(2-(2-cyanoacetyl)hydrazineyl)-3-oxopropyl)-N-(1-(naphthalen-1-yl)ethyl)benzamide]
EC50 (μM) [2, 24]: no CPE | Time dep. (SARS-CoV-2 PLpro [10]; [25]): not and no | IC50 (SARS-CoV-2 PLpro [3]): 8 µM | Cytotox. (<30 μM) (Vero E6 cells [5]): no

COC(=O)/C=C/C(=O)NNC(=O)CCc1ccccc1C(=O)N[C@H](C)c1cccc2ccccc12 [Compound 7, methyl(R,E)-4-(2-(3-(2-((1-(naphthalen-1 yl)ethyl)carbamoyl)-phenyl)propanoyl)hydrazineyl)-4-oxobut-2-enoate]
half-life at 1 μM (in vitro [1]): 50 min | EC50 [14]: 290 nM | EC90 [15]: > 10 µM | exposure following IV dosing ([16]; iv, 3 mg/kg): Little exposure was observed | exposure following PO dosing ([16]; po, 10 mg/kg): no exposure recorded | CC50 (Caco-2 cells): > 10 µM | IC50 [8]: > 30 µM | inhibition of human DUBs [8]: no inhibition was observed | CC50 at 48 h (in vitro [9]): > 30 µM | EC50 [17]: 680 nM | Time dep. (SARS-CoV-2 PLpro [10]; [25]): yes | CC50 (in vitro [18]): > 10 µM | CC50 (Vero E6 cells [19]): > 10 µM | Cytotox. (<30 μM) (Vero E6 cells [5]): no | half-life at 1 μM (in vitro [6]): 60 min | EC90 (SARS-CoV-2 USA-WA1/2020 [20]): 260 nM | CC50 (in vitro [21]): > 10 µM | EC90 [22]: 2400 nM | EC50 (SARS-CoV-2 USA-WA1/2020 [23]): 68 nM

CCC(CC)COC(=O)[C@H](C)N[P@](=O)(OC[C@H]1O[C@@](C#N)(c2ccc3c(N)ncnn23)[C@H](O)[C@@H]1O)Oc1ccccc1 [remdesivir, reference compound]
EC50 ([2]; Severe acute respiratory syndrome coronavirus 2, Vero C1008, 48 h): 0.74 µM

COC(=O)/C=C/C(=O)NNC(=O)CCc1ccc(NC(C)=O)cc1C(=O)N[C@H](C)c1cccc2ccccc12 [Compound 8, methyl-(R,E)-4-(2-(3-(4-acetamido-2-((1-(naphthalen-1-yl)ethyl)carbamoyl)phenyl)propanoyl)hydrazineyl)-4-oxobut-2-enoate]
kinact/KI (SARS-CoV-2 PLpro [10]): 14000 M⁻¹ s⁻¹ | kinact/KI (M^−1 s^−1) (SARS-CoV-2 PLpro [10]): 14,000 M^−1 s^−1 | Cytotox. (<30 μM) (Vero E6 cells [5]): no

COC(=O)CCc1ccccc1C(=O)N[C@H](C)c1cccc2ccccc12 [Compound 3, methyl (R)-3-(2-((1-(naphthalen-1-yl)ethyl)carbamoyl)phenyl)-propanoate]
Time dep. (SARS-CoV-2 PLpro [10]; [25]): no
